The numbers were not newly measured in patent US20040106141A1, “Methods and materials for examining pathways associated with glioblastoma progression” (The Regents of the University of California, priority 2002, published 2004), which cites them from elsewhere.

This data set has as its system SKMG-3 cells. To be noted: unstimulated SKMG-3 cells.

In the case of `CNc1cc2c(Nc3cccc(Br)c3)ncnc2cn1` [PD158780], the “constitutive phosphorylation of Erk” value is given as “reduces”. Further, the “constitutive phosphorylation of the receptor (EGFR)” value (GBM cell line with EGFR gene amplification) is recorded as “reduces”.
